Here are results for four compounds from patent publication US20250241870A1, “OXYRESVERATROL AND DERIVATIVES THEREOF FOR USE IN LIPOLYSIS” (Caliway Biopharmaceuticals Co., Ltd., priority 2024, published 2025).

Data set [1] in a line: MTT assay, cell viability rate of 3T3-L1 mature adipocytes. In kind it is cell-based. As to conditions: mouse. As to the method: (§1) 3T3-L1 cell subculture medium (preadipocytes): DMEM+10% BCS+1% P/S.
(§2) 3T3-L1 cell induction differentiation medium (mature adipocytes): DMI Medium: DMEM+10% FBS+1% P/S+0.5 μM IBMX+0.1 μM dexamethasone+5 μg/mL insulin; and INS Medium: DMEM+10% FBS+1% P/S+5 μg/mL insulin. IBMX stock solution was prepared as follows: 500 mM solution in DMSO diluted and used to prepare the differentiation medium. Dexamethasone stock solution was preprepared as follows: 10 mM solution in EtOH diluted and used to prepare the differentiation medium. Insulin stock solution was prepared as follows: 10 mg/mL solution in double distilled water (ddw) diluted and used to prepare the differentiation medium.
(§3) Steps to induce differentiation: The adipocyte precursors 3T3-L1 cells (purchased from the Food Industry Research and Development Institute, Taiwan; abbreviated as BCRC) were seeded in 12-well plates, such that each well contained 1×10^5 cells.
(§4) MTT assay: After 3T3-L1 cells were induced to differentiate into mature adipocytes for 8 days, Resveratrol or Oxyresveratrol was added for treatment for 24 hours, then the culture medium was replaced with MTT reagent (working concentration: 0.5 mg/mL), and cultured in a 37° C. incubator for 2 hours. After removing the supernatant, DMSO was added to dissolve the purple crystals, and an ELISA reader was used to measure the OD 570 nm absorbance value and OD 630 nm background absorbance value. The background value OD 630 nm was subtracted from the measured value OD 570 nm in each group to obtain the final absorbance value.
(§5) Calculation formula (cell viability rate): After measuring the absorbance value at 570 nm and subtracting the background absorbance at 630 nm, the final absorbance value was multiplied by the […] and divided by the average absorbance value of the Control group for calculation.
(§6) 3T3-L1 preadipocytes and mature adipocytes were cultured using the same cell subculture medium disclosed in Example 1 above. Adipocytes differentiation, MTT assay, and determination cell viability was conducted following the methods disclosed herein. See, e.g. Example 1 above.

For the next data set, the system named is 3T3-L1 mature adipocytes. Described as above. In kind it is cell-based. As to conditions: 24 hours; for Cell viability compared with DMSO Vehicle group / Effect on adipocytes compared with resveratrol at the same concentration: p<0.001; for Cell viability rate compared with 0.2% DMSO Vehicle group: 20 ppm, 40 ppm and 60 ppm, p<0.001, dose effect; for Effect on adipocytes compared with resveratrol at the same concentration: 40 ppm. As to the method:
as §1, §2, §3, §4, §5, §6

Where [2] appears, read: Cell viability rate, Replicate 1.
Where [3] appears, read: Cell viability rate, Replicate 2.
The mark [4] stands for this setting: Cell viability rate, Replicate 3.
[5] abbreviates: Cell viability rate, Replicate 4.

Where two headings read alike, the source gives them in different places.

What is called viability is the share of living cells, or the viability signal relative to a control.

As to `COc1ccc(/C=C/c2cc(O)cc(O)c2)cc1O` [IM05, 5-[(E)-2-(3-hydroxy-4-methoxyphenyl)ethenyl]benzene-1,3-diol], the viability at 24 h, 50 ppm in data set [1] (3T3-L1 mature adipocytes (differentiated from preadipocytes), 3T3-L1 mature adipocytes, drug 50 ppm, 0.2% DMSO, 24 hours, mean of 4 replicates, read-out: Cell viability rate, Mean) stood at 72.4%; in data set [1] (3T3-L1 mature adipocytes (differentiated from preadipocytes), 3T3-L1 mature adipocytes, drug 50 ppm, 0.2% DMSO, 24 hours, read-out: Cell viability rate, Replicate 1) it was 66.5%; in data set [1] (3T3-L1 mature adipocytes (differentiated from preadipocytes), 3T3-L1 mature adipocytes, drug 50 ppm, 0.2% DMSO, 24 hours, read-out: Cell viability rate, Replicate 2), 71.2%; in data set [1] (3T3-L1 mature adipocytes (differentiated from preadipocytes), 3T3-L1 mature adipocytes, drug 50 ppm, 0.2% DMSO, 24 hours, read-out: Cell viability rate, Replicate 3) it was 73.5%; in data set [1] (3T3-L1 mature adipocytes (differentiated from preadipocytes), 3T3-L1 mature adipocytes, drug 50 ppm, 0.2% DMSO, 24 hours, read-out: Cell viability rate, Replicate 4), 78.4%. The “Cell viability compared with DMSO Vehicle group” value with 3T3-L1 mature adipocytes (50 ppm) is listed as “significantly decreased”.

`Oc1cc(O)cc(/C=C/c2ccc(O)cc2O)c1` [Oxyresveratrol, 4-[(E)-2-(3,5-dihydroxyphenyl)ethenyl]benzene-1,3-diol] registered a viability at 24 h, 20 ppm in data set [1] (Average viability (%)) of 76.8 ± 3.27%. The same compound returned a viability at 24 h, 40 ppm in data set [1] (Average viability (%)) of 28.65 ± 0.26%. Besides, in data set [1] (Average viability (%)), the viability at 24 h, 60 ppm was 12.5 ± 1.09%. Besides, the viability at 24 h, 50 ppm in data set [1] (Cell viability rate, Mean) stood at 39.6%; in data set [1] (setting [2]), 43.2%; in data set [1] (setting [3]), 38%; in data set [1] (setting [4]) it was 37%; in data set [1] (setting [5]), 40%. For the same compound, the “Cell viability rate compared with 0.2% DMSO Vehicle group” value with 3T3-L1 mature adipocytes is given as “significantly lower than 0.2% DMSO Vehicle group”. Also, the “Effect on adipocytes compared with resveratrol at the same concentration” value in the data set on 3T3-L1 mature adipocytes (listed as OxyR) is listed as “more effective in reducing adipocytes than Res”; with 3T3-L1 mature adipocytes (listed as oxyresveratrol) it was “better inhibitory effects against adipocytes as compared with resveratrol”. Besides, in the data set on 3T3-L1 mature adipocytes (50 ppm), the “Effect on adipocytes survival compared with derivatives TriacetylR and IM05” value was “more effective in reducing adipocytes survival than its derivatives”. Also, in the data set with 3T3-L1 mature adipocytes (50 ppm), the “Cell viability compared with DMSO Vehicle group” value is given as “significantly decreased”. Besides, the “Cell viability rate compared with resveratrol at the same concentration” value with 3T3-L1 mature adipocytes (60 ppm) is given as “no significant difference in cell viability rate”.

As for `Oc1ccc(C=Cc2cc(O)cc(O)c2)cc1` [Resveratrol], in data set [1] (3T3-L1 mature adipocytes (differentiated from preadipocytes), 3T3-L1 mature adipocytes, drug 20 ppm, 0.2% DMSO, 24 hours, relative to Control, mean ± spread of 3 replicates, read-out: Average viability (%)), the viability at 24 h, 20 ppm was found to be 69.6 ± 1.36%. In addition, the viability at 24 h, 40 ppm in data set [1] (3T3-L1 mature adipocytes (differentiated from preadipocytes), 3T3-L1 mature adipocytes, drug 40 ppm, 0.2% DMSO, 24 hours, relative to Control, mean ± spread of 3 replicates, read-out: Average viability (%)) turned out to be 43.4 ± 1.47%. Also, in data set [1] (3T3-L1 mature adipocytes (differentiated from preadipocytes), 3T3-L1 mature adipocytes, drug 60 ppm, 0.2% DMSO, 24 hours, relative to Control, mean ± spread of 3 replicates, read-out: Average viability (%)), the viability at 24 h, 60 ppm worked out at 14.1 ± 0.6%. Moreover, the “Cell viability rate compared with 0.2% DMSO Vehicle group” value in the data set with 3T3-L1 mature adipocytes is “significantly lower than 0.2% DMSO Vehicle group”.

`CC(=O)Oc1ccc(/C=C/c2cc(OC(C)=O)cc(OC(C)=O)c2)cc1` [TriacetyIR, [4-[(E)-2-(3,5-diacetyloxyphenyl)ethenyl]phenyl] acetate]: the viability at 24 h, 50 ppm in data set [1] (Cell viability rate, Mean) was found to be 68.9%; in data set [1] (setting [2]) it was 73.2%; in data set [1] (setting [3]), 64%; in data set [1] (setting [4]), 67.2%; in data set [1] (setting [5]), 71.2%. In addition, the “Cell viability compared with DMSO Vehicle group” value in the data set on 3T3-L1 mature adipocytes (50 ppm) was “significantly decreased”.
